One assay concerns the target HTR2A (Homo sapiens, UniProt P28223). The experiment in a line: Safetyscan47 GPCR Calcium Flux, Antagonist. Format: cell-based. The note with it: for Emax: read-out: Max Response. A general note: Calcium flux is commonly read through the fluorescence of an indicator in the cells.
The target in another assay is T1, AR (Homo sapiens, UniProt P10275).
T1 sequence (P10275 1-920): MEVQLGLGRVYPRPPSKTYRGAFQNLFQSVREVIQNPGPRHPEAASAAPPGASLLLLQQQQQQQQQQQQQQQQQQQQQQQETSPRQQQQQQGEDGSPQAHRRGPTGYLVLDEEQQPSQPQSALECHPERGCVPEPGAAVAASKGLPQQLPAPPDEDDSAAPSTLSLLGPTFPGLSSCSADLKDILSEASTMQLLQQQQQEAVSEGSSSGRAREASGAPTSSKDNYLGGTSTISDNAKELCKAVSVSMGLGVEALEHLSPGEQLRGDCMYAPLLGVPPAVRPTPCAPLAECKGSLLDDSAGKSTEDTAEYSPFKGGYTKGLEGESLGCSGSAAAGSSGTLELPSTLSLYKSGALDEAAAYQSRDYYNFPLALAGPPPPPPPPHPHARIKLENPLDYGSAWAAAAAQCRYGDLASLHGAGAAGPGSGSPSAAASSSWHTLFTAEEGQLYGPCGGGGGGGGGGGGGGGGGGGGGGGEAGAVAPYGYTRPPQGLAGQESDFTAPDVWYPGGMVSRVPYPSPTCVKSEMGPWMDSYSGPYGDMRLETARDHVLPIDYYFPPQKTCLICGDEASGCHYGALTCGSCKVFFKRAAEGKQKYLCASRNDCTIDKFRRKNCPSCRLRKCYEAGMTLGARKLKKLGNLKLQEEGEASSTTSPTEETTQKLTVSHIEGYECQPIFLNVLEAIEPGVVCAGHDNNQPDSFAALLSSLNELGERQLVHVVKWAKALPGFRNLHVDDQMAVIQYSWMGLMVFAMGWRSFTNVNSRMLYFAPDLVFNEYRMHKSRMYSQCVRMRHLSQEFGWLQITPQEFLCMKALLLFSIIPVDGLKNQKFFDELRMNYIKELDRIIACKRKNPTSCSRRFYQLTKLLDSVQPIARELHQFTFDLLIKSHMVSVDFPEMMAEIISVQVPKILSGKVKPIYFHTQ
Put plainly: Safetyscan47 NHR Nuclear Translocation, Antagonist. Format: cell-based. The note with it: for Emax: read-out: Max Response.

Assay [1] addresses T2, HTR2B (Homo sapiens, UniProt P41595). The experiment in a line: Safetyscan47 GPCR Calcium Flux, Agonist. The note with it: for Emax: read-out: Max Response. Format: cell-based.
The target of a further assay is T3, CCKAR (Homo sapiens, UniProt P32238).
T3 sequence (P32238 1-428): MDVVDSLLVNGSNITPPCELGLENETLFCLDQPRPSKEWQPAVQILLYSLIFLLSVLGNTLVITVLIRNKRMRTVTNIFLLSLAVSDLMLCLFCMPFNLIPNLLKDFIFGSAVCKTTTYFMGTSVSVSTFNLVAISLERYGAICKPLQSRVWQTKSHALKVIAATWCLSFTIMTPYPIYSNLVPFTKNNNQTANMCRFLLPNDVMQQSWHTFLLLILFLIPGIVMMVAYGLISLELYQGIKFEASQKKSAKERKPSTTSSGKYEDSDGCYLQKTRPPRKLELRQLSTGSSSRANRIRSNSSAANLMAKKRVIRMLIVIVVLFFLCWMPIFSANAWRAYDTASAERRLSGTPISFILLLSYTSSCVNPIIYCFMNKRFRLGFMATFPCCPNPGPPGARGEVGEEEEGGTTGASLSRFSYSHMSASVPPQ
Put plainly: Safetyscan47 GPCR Calcium Flux, Agonist. Format: cell-based. The note with it: for Emax: read-out: Max Response.

The next assay deals with T4, HTR3A (Homo sapiens, UniProt P46098).
T4 sequence (P46098 24-478): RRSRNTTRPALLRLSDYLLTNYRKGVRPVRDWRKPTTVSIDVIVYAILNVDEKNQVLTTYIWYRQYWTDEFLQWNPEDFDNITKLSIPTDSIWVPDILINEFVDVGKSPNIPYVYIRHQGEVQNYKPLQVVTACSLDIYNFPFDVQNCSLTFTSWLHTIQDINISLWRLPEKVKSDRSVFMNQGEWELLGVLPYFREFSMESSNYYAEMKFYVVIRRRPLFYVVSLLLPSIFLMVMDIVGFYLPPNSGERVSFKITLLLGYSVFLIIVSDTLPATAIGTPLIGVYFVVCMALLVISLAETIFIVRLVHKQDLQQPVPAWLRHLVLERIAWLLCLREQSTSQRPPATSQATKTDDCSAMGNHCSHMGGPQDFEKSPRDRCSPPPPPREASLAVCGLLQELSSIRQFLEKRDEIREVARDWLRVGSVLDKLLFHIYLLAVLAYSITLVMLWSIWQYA
Put plainly: Safetyscan47 Ion Channel, Opener. Format: cell-based. The note with it: for Emax: read-out: Max Response.

The next assay deals with CNR2 (Homo sapiens, UniProt P34972). The experiment in a line: Safetyscan47 GPCR cAMP, Antagonist. The note with it: for Emax: read-out: Max Response. Format: cell-based.
For another assay, the target named is CHRM3 (Homo sapiens, UniProt P20309). Put plainly: Safetyscan47 GPCR Calcium Flux, Antagonist. Format: cell-based. Conditions: for Emax: read-out: Max Response.
The target in the next assay is HRH2 (Homo sapiens, UniProt P25021). Put plainly: Safetyscan47 GPCR cAMP, Antagonist. Format: cell-based. The note with it: for Emax: read-out: Max Response.
For assay [2], the target named is T2, HTR2B. Put plainly: Safetyscan47 GPCR Calcium Flux, Antagonist. Format: cell-based. The note with it: for Emax: read-out: Max Response.
For another assay, the target named is integrin α8β1 (Homo sapiens, UniProt P05556+P53708). The experiment in a line: ELISA competition assay, integrin α8β1. Format: binding. For orientation: ELISA stands for enzyme-linked immunosorbent assay.

Bridge positions count the residues as written; N and C are the ends. Side chains are listed from the residue outwards. Peptide text beside a SMILES is read from it. * marks the point of attachment. Butanoyl(4-(4-I-phenyl)) = O=C(CCCc1ccc(I)cc1)*; PEG2 = NCCOCCOCCC(=O)O

As a reminder, the IC50 is the midpoint of a concentration-inhibition curve. As usually defined, the EC50 is the concentration that produces a half-maximal response.

Chain of HRH2 (P25021 whole entry): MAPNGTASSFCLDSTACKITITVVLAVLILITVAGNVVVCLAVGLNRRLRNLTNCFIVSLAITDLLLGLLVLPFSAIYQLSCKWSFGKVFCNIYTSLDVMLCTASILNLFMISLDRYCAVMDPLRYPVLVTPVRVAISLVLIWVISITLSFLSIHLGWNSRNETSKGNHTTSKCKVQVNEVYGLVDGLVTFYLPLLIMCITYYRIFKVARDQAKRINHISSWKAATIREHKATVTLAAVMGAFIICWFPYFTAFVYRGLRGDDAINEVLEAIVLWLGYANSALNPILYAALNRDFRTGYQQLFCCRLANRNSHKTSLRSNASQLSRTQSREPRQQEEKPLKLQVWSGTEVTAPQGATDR
Chain of HTR2A (P28223 whole entry): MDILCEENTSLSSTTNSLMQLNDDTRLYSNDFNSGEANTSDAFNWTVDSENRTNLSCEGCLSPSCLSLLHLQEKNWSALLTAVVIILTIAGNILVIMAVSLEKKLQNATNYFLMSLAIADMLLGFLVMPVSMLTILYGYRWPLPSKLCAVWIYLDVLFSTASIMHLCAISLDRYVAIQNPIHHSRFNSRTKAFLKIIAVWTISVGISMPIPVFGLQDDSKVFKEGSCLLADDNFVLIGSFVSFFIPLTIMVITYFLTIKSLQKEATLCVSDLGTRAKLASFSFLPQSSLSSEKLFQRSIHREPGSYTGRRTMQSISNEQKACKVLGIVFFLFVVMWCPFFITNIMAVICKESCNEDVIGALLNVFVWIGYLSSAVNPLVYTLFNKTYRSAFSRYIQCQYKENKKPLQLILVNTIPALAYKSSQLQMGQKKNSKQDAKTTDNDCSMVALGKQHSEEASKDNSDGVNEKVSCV
T2 sequence (P41595 whole entry): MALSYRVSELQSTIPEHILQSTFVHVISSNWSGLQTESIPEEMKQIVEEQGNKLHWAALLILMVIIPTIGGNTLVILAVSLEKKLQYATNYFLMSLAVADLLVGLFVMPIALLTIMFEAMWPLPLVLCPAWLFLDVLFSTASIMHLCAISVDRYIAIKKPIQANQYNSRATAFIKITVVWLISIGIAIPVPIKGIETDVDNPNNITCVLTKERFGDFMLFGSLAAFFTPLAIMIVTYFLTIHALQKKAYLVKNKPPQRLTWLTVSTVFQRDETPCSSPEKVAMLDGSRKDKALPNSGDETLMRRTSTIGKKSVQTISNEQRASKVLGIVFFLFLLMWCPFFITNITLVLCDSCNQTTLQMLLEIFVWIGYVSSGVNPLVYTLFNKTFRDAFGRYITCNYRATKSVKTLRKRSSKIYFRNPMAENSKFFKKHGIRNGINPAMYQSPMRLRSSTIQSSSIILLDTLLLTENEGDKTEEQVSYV
Chain of CNR2 (P34972 whole entry): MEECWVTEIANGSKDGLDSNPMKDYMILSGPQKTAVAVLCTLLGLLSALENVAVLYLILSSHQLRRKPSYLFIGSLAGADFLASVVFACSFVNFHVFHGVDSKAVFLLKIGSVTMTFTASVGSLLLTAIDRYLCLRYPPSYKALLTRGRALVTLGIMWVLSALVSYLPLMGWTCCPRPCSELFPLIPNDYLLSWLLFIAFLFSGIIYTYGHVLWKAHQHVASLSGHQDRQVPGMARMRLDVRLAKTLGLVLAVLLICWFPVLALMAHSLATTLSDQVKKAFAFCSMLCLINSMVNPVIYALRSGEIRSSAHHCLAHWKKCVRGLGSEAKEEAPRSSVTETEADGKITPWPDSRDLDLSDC
Chain of CHRM3 (P20309 whole entry): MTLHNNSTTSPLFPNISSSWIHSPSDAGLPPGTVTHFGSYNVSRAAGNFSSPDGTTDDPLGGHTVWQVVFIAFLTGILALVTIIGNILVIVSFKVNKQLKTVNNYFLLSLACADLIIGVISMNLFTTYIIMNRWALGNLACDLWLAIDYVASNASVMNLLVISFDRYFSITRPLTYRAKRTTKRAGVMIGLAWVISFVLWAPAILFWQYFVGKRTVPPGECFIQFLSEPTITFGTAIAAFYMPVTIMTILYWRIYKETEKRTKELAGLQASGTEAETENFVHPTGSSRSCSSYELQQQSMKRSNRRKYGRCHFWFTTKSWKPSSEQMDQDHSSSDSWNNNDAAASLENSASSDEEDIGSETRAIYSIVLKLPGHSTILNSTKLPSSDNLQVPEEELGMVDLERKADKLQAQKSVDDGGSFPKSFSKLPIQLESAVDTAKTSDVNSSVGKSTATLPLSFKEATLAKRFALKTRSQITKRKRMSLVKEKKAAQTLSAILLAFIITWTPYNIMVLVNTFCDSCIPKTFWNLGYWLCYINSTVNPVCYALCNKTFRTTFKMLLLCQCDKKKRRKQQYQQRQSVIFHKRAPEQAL
Chain of integrin α8β1 (P53708 39-1011 limits assumed): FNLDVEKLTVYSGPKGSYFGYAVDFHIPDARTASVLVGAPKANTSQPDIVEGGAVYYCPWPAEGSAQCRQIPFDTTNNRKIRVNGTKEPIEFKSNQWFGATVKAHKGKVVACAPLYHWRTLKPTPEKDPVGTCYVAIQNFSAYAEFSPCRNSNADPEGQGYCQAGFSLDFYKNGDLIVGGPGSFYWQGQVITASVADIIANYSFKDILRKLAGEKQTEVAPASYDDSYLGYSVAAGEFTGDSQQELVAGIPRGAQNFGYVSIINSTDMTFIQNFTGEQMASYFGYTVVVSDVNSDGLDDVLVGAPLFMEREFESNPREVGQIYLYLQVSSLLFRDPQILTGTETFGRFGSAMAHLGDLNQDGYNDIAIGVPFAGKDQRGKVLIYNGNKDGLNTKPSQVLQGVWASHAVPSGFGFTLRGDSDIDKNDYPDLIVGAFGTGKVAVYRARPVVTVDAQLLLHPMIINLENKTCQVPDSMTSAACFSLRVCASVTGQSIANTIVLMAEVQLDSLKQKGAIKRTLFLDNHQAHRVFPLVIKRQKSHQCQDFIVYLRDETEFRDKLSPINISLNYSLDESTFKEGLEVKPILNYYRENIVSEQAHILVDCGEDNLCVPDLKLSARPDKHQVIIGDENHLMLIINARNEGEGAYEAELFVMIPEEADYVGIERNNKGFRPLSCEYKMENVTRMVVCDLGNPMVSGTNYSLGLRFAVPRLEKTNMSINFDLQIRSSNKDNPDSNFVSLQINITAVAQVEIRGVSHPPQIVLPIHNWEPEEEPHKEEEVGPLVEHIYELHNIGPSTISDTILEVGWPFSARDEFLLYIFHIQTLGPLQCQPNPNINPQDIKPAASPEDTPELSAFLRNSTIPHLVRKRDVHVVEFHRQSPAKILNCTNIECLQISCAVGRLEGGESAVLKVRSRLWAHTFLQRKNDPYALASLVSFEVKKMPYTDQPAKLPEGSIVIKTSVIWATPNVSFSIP
Chain of integrin α8β1 (P05556 21-728 limits assumed): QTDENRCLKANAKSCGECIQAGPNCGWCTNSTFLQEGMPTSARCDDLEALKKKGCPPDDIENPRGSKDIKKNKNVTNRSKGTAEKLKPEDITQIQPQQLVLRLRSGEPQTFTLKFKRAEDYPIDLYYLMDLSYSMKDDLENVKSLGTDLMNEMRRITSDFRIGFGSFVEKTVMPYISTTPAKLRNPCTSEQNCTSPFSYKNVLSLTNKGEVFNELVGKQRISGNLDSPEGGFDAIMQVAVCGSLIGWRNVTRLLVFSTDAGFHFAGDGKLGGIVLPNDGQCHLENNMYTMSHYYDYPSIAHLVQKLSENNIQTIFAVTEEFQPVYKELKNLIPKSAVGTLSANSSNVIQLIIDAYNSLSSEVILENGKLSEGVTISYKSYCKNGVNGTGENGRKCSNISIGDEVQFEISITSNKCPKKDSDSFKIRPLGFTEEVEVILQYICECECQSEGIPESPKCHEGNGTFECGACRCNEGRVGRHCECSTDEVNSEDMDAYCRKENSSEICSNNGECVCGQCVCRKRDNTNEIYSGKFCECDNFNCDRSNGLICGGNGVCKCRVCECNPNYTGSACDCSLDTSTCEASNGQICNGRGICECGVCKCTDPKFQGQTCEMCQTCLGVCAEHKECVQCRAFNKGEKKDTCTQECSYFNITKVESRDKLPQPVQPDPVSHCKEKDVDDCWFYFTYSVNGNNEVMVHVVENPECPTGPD

As to `CC[C@H](C)[C@H](NC(=O)[C@H](CC(C)C)NC(=O)[C@H](CC(=O)O)NC(=O)CNC(=O)[C@H](CCCNC(=N)N)NC(=O)[C@@H](NC(=O)[C@H](Cc1ccccc1)NC(=O)[C@H](Cc1ccc(O)cc1)NC(=O)[C@@H]1CCC(=O)NCC(=O)NCC(=O)N[C@@H](CCCNC(=N)N)C(=O)NCC(=O)N[C@@H](Cc2c[nH]cn2)C(=O)N[C@@H](C(C)C)C(=O)N2CCC[C@H]2C(=O)N1)C(C)C)C(=O)N[C@@H](CO)C(=O)N[C@@H](Cc1ccccc1)C(=O)N[C@@H](Cc1ccc(O)cc1)C(=O)N[C@@H](CCCCNC(=O)CCOCCOCCNC(=O)CCCc1ccc(I)cc1)C(=O)O` [lassotide 47] (GGRGHVPEYFVRGDLISFYK([PEG2-Butanoyl(4-(4-I-phenyl))])-OH; lactam N-8), the IC50 on HTR2A, against AR, against CNR2, on CHRM3, against HRH2 and on HTR2B [2] was over 45 µM throughout. The same compound gave an IC50 on integrin α8β1 of over 10 µM. Besides, the Emax on HTR2A was determined as 10.7%; at AR, 0%; at HTR2B [1], 0%; on CCKAR, 0%; at HTR3A it was 0.79%; at CNR2 it was 2.1%. Moreover, the results for the Emax on CHRM3, on HRH2 and on HTR2B [2] were 0.91%, 30% and 13.4%, respectively. The concentration giving a half-maximal response (EC50) at HTR2B [1], on CCKAR and on HTR3A was over 45 µM throughout.
Regarding `CC[C@H](C)[C@H](NC(=O)[C@H](CC(C)C)NC(=O)[C@H](CC(=O)O)NC(=O)CNC(=O)[C@H](CCCNC(=N)N)NC(=O)[C@@H](NC(=O)[C@H](Cc1ccccc1)NC(=O)[C@H](Cc1ccc(O)cc1)NC(=O)[C@@H]1CCC(=O)NCC(=O)NCC(=O)N[C@@H](CCCNC(=N)N)C(=O)NCC(=O)N[C@@H](Cc2c[nH]cn2)C(=O)N[C@@H](C(C)C)C(=O)N2CCC[C@H]2C(=O)N1)C(C)C)C(=O)N[C@@H](CO)C(=O)N[C@@H](Cc1ccccc1)C(=O)N[C@@H](Cc1ccc(O)cc1)C(=O)N[C@@H](CCCCN)C(=O)O` [lassotide 36] (GGRGHVPEYFVRGDLISFYK-OH; lactam N-8), the IC50 on HTR2A, at AR, against CNR2, on CHRM3, at HRH2 and on HTR2B [2] was over 45 µM in each case. Further, on integrin α8β1, the concentration for half-maximal inhibition (IC50) turned out to be 3.89 µM. Besides, the Emax at HTR2A was 5.08%; on AR it was 0%; at HTR2B [1] it was 0%; at CCKAR, 4.58%; on HTR3A it was 0%; at CNR2, 1.15%. In addition, the results for the Emax at CHRM3, at HRH2 and at HTR2B [2] were 3.06%, 2.58% and 11.8%, respectively. The concentration giving a half-maximal response (EC50) on HTR2B [1], at CCKAR and on HTR3A was over 45 µM in each case.
